This is an account of results in patent publication US11684606B2, “Methods of treating generalized pustular psoriasis with an antagonist of CCR6 or CXCR2” (CHEMOCENTRYX, INC., priority 2018, dated 2023).

In test [1] the test system is imiquimod-treated skin of Balb/c mice. The following applies: reported in a previous study; cited from earlier work.
Test [2] deals with CD4 T cells, neutrophils and inflammatory dendritic cells within IL-36-treated skin. Kind of test: Flow cytometry of leukocytes accumulating in IL-36-treated skin. The following applies: intradermal IL36 mouse model (Example 1). Format: in vivo, mouse. As to the method:
(§1) For in vivo dosing, mice were dosed subcutaneously with Compound 1.136 once daily (s.c. q.d. in 1% HPMC) at 90 mg/kg unless stated otherwise, starting at day 0 of a study. The in vivo dose was predicted based on in vitro potency and the pharmacokinetic response to a single dose in mice. The minimum antagonist concentration (at trough) to fully cover a gradient-sensing chemoattractant receptor has been determined to correspond with the IC90 concentration (Schall, T. J., and A. E. Proudfoot. 2011. Overcoming hurdles in developing successful drugs targeting chemokine receptors. Nat Rev Immunol 11: 355-363).
Flow cytometry of leukocytes. Ears or excised skin samples were digested in collagenase A and 1 U/ml DNAse I with agitation for 30 min at 37° C. Cells were then dislodged from skin, filtered through a […] sieve, washed and re-suspended in FACS buffer (PBS with 10% FBS) for analysis.
Directly conjugated Monoclonal antibodies were from R&D Systems (Minneapolis, Minn.), BioLegend (San Diego, Calif.), or eBioscience/ThermoFisher (San Diego, Calif.). CD45.2 (104) in AlexaFluor488, Ly6C (HK1.4) in PE, CD90.2 (30-H12) in Per CP-Cy5.5, TCRVγ4 (UC3-10A6) in PE-Cy7, TCRβ (H57-597) in APC, CD4 (GK1.5) in APC-eFluor-780, TCRγδ (GL3) in BV-421, LIVE/DEAD fixable Aqua stain (Molecular Probes, Eugene, Oreg.), CD11c (N418) in BV650, Ly6G (1A4) in BV711 and CD11b (M1/70) in BV785. Flow cytometry data were acquired with a Fortessa (BD Biosciences) cytometer and analyzed using FlowJo v10.2

The subject of test [3] is IL-36α-injected ears of Balb/c mice. Kind of test: Mouse model of IL-36-induced ear thickening (GPP model). Format: in vivo. The following applies: intradermal IL36 mouse model (Example 1). As to the method: as §1
Mouse model of IL-36-induced ear thickening. The right ear of 8-week old Balb/c mice received intradermal injections of recombinant murine IL-36α (150 μg per mouse formulated in PBS; BioLegend) every day for 5 days. Intradermal injections of PBS were given to the left ear as a control. Ear thickness was measured prior to start of study and each day thoughout the study using a digital micrometer. The imiquimod model of psoriasiform dermatitis was performed as previously described (Campbell Jet al. J Immunol. 2017; 199(9):3129-36. van der Fits et al. J Immunol 2009; 182(9):5836-45). Briefly, 5% Imiquimod (Fougera®) was applied daily to the shaved and depilated backs of Balb/c mice for up to 4 days. Control mice were treated with an application of Vaseline. Erythema, desquamation, and skin thickening were scored independently on a scale from 0 to 4 where 0=no disease; 1=slight disease; 2=moderate disease; 3=marked disease; 4=very marked disease (Campbell J et al. J Immunol. 2017; 199(9):3129-36. van der Fits et al. J Immunol 2009; 182(9):5836-45). Skin from the backs of mice was excised at the end of the study and processed for flow cytometry analysis,
Mouse anti-IL-17RA. (R&D Systems) was dosed as a positive control at 200-500 μg per mouse, i.p., q.d.

On to `CC(C)(C)[C@@H](Nc1c(Nc2ccc(Cl)c3c2C(=O)NC3)c(=O)c1=O)c1ccc(Cl)o1` [Compound 1.129], for which the “Inflammation in topical imiquimod-induced model of plaque psoriasis” value in test [1] was “ameliorates inflammation”. In test [2], the “Accumulation of CD4+αβ T cell population in IL36-inflamed skin” value was “preventing accumulation”. In test [3], the IL36-induced inflammation result is reported as “reduces IL36-induced inflammation”.
